Measurements taken from the NIST ThermoML archive (doi:10.1016/j.jct.2009.04.015).
Where “and” joins values, the source holds several entries; their conditions need not be identical. Equal values may be shown once.

Conditions: Crystal, Calculated from knudsen effusion weight loss

Cc1ccc(O)cc1O [1,3-benzenediol, 4-methyl-]
Conditions | vapor or sublimation pressure
317.2 K | 0.000134 kPa and 0.000129 kPa and 0.000128 kPa
319.22 K | 0.000175 kPa and 0.00017 kPa and 0.000166 kPa
321.11 K | 0.00022 kPa and 0.000215 kPa and 0.000211 kPa
323.21 K | 0.000266 kPa and 0.000262 kPa and 0.000282 kPa
325.23 K | 0.000361 kPa and 0.000344 kPa and 0.000336 kPa
327.13 K | 0.000451 kPa and 0.000438 kPa and 0.000432 kPa
329.21 K | 0.000572 kPa and 0.000562 kPa and 0.000561 kPa
331.21 K | 0.000742 kPa and 0.000724 kPa and 0.000719 kPa
333.12 K | 0.000933 kPa and 0.000916 kPa and 0.000886 kPa

Cc1cc(O)cc(O)c1 [5-methyl-1,3-benzenediol]
Conditions | vapor or sublimation pressure
322.2 K | 0.000157 kPa and 0.000153 kPa
324.16 K | 0.000199 kPa and 0.000196 kPa and 0.000193 kPa
326.1 K | 0.000246 kPa and 0.000245 kPa
328.2 K | 0.000304 kPa and 0.000311 kPa and 0.000303 kPa
330.14 K | 0.000394 kPa and 0.000383 kPa and 0.000378 kPa
332.1 K | 0.000499 kPa and 0.000485 kPa and 0.000482 kPa
334.19 K | 0.000607 kPa and 0.000596 kPa and 0.000591 kPa
336.13 K | 0.000766 kPa and 0.000754 kPa and 0.000734 kPa
338.1 K | 0.000974 kPa and 0.000935 kPa and 0.000932 kPa

Cc1c(O)cccc1O [1,3-dihydroxy-2-methylbenzene]
Conditions | vapor or sublimation pressure
309.22 K | 0.000109 kPa and 0.000107 kPa and 0.000103 kPa
311.2 K | 0.000141 kPa and 0.000136 kPa and 0.000132 kPa
313.12 K | 0.000176 kPa and 0.000172 kPa and 0.000171 kPa
315.21 K | 0.000224 kPa and 0.000217 kPa and 0.000227 kPa
317.12 K | 0.000287 kPa and 0.00028 kPa and 0.000276 kPa
319.2 K | 0.000358 kPa and 0.00035 kPa and 0.000341 kPa
321.19 K | 0.000456 kPa and 0.000446 kPa and 0.000437 kPa
323.12 K | 0.000578 kPa and 0.000559 kPa and 0.000553 kPa
325.21 K | 0.000724 kPa and 0.000694 kPa and 0.000673 kPa
327.17 K | 0.000896 kPa and 0.000883 kPa and 0.000851 kPa
329.11 K | 0.001115 kPa and 0.001099 kPa and 0.001081 kPa

Cc1cc(O)ccc1O [1,4-benzenediol, 2-methyl-]
Conditions | vapor or sublimation pressure
325.21 K | 0.000147 kPa and 0.000144 kPa and 0.000138 kPa
327.15 K | 0.000189 kPa and 0.000182 kPa and 0.000173 kPa
329.11 K | 0.000239 kPa and 0.000229 kPa and 0.000226 kPa
331.19 K | 0.000292 kPa and 0.000277 kPa and 0.000298 kPa
333.14 K | 0.000375 kPa and 0.000361 kPa and 0.000348 kPa
335.11 K | 0.000481 kPa and 0.000462 kPa and 0.000448 kPa
337.2 K | 0.00061 kPa and 0.000607 kPa and 0.000569 kPa
339.14 K | 0.000751 kPa and 0.000731 kPa and 0.000704 kPa
341.12 K | 0.000957 kPa and 0.000916 kPa and 0.00089 kPa
